One test deals with human Mia PaCa-2 cells. The test is described as follows: In vivo growth inhibition of orthotopically transplanted pancreatic ductal adenocarcinoma. The settings on record: male athymic mice, orthotopic Mia PaCa-2; 200 pmol/kg/hr via mini-osmotic pumps for four weeks; vs saline control. The method, then: The human pancreatic ductal adenocarcinoma Mia Paca-2 was examined for in vivo growth inhibition by peptide YY and Analog #1. Seventy thousand to 100,000 human Mia PaCa-2 cells were orthotopically transplanted into 48 male athymic mice. After one week, the animals were treated with either PYY or Analog #1 at 200 pmol/kg/hr via mini-osmotic pumps for four weeks. The paired cultures received saline. At sacrifice, both tumor size and mass were measured. Control mice had significant human cancer growth within the pancreas as evidenced by histologic sections. At 9 weeks, ninety percent (90%) of control mice had substantial metastatic disease.

The next test concerns PANC-1. The test is described as follows: MTT viability assay, in vitro anti-proliferative activity. The test is classed as cell-based, human. The settings on record: 36 hours, vs saline control. The method, then: (§1) PANC-1 and MiaPaCa-2 are two human pancreatic adenocarcinomas cancer cell lines which are available commercially from suppliers such as American Type Culture Collection, ATCC (Rockville, Md.). For this example, the two tumor cells were grown in RPMI-1640 culture media supplemented with 10% fetal bovine serum, 29.2 mg/L of glutamine, 25 μg gentamicin, 5 ml penicillin, streptomycin, and fungizone solution (JRH Biosciences, Lenexa, Kans.) at 37° Celsius in a NAPCO water jacketed 5 % CO2 incubator. All cell lines were detached with 0.25 % trypsin (Clonetics, San Diego, Calif.) once to twice a week when a confluent monolayer of tumor cells was achieved. Cells were pelleted for 7 minutes at 500 g in a refrigerated centrifuge at 4 ° Celsius, and resuspended in trypsin free fortified RPMI 1640 culture media. Viable cells were counted on a hemocytometer slide with trypan blue.
(§2) Ten thousand, 20,000, 40,000 and 80,000 cells of each type were added to 96 well microculture plates (Costar, Cambridge, Mass.) in a total volume of 200 μl of culture media per well. Cells were allowed to adhere for 24 hours prior to addition of the PYY or Analog #1 peptides. Fresh culture media was exchanged prior to addition of peptides. In vitro incubation of pancreatic tumor cells with either PYY or Analog #1 was continued for 6 hours and 36 hours in length. PYY was added to cells at doses of 250 pmol, 25 pmol, and 2.5 pmol per well (N =14). Analog #1 was added to cells cultures at doses of 400 pmol, 40 pmol, and 4 pmol per well. Control wells received 2 μl of 0.9% saline to mimic the volume and physical disturbance upon adhered tumor cells. Each 96 well plate contained 18 control wells to allow for comparison within each plate during experimentation. Ninety-six (96) well plates were repeated 6 times with varying concentrations of PYY and Analog #1 in both the PANC-1 and MiaPaCa-2 cells.
(§3) At the end of the incubation period, 3-(4,5-dimethylthiazolyl-2-yl)-2,5-diphenyltetrazolium Bromide, MTr tetrazolium bromide (Sigma, St. Louis, Mo.) was added to fresh culture media at 0.5 mg/ml. Culture media was exchanged and tumor cells were incubated for 4 hours with MTT tetrazolium bromide at 37° Celsius. At the end of incubation, culture media was aspirated. Formazon crystal precipitates were dissolved in 200 μl of dimethyl sulfoxide (Sigma, St. Louis, Mo.). Quantitation of solubilized formazon was performed by obtaining absorption readings at […] wavelength on an ELISA reader (Molecular Devices, Menlo Park, Calif.). The MTT assay measures mitochondrial NADH dependent dehydrogenase activity, and it has been among the most sensitive and reliable method to quantitative in vitro chemotherapy responses of tumor cells. (Alley, M. C., Scudiero, D. A., Monk, A., Hursey, M. L., Dzerwinski, M. J., Fine, D. L., Abbott, B. J., Mayo, J. G., Shoemaker, R. H. and Boyd, M. R., Feasibility of drug screening with panels of human tumor cell lines using a microculture tetrazolium assay Cancer Res., 48:589-601, 1988; Carmichael, J., DeGraff, W. G., Gazdar, A. F., Minna, J. D. and Mitchell, J. B., Evaluation of a tetrazolium-based semiautomated colorimetric assay: Assessment of chemosensitivity testing. Cancer Res., 47:936-942, 1987; McHale, A. P., McHale, L., Use of a tetrazolium based colorimetric assay in assessing photoradiation therapy in vitro. Cancer Lett., 41:315-321, 1988; and Saxton, R. E., Huang, M. Z., Plante D., Fetterman, H. F., Lufkin, R. B., Soudant, J., Castro, D. J., Laser and daunomycin chemophototherapy of human carcinoma cells. J. Clin. Laser Med. and Surg., 10(5):331-336, 1992.)
(§4) Analysis of absorption readings at 550 nm were analyzed by grouping wells of the same test conditions and verifying differences occurring between control and the various peptide concentration treatments by one-way ANOVA. Once statistical significance was achieved, P <0.05, each test group was compared to its paired control group by Student's T-test within each 96 well plate. […]
In general terms: Tetrazolium assays rely on reduction of a dye to a coloured formazan, in cell work by metabolically active cells.

The subject of a further test is MiaPaCa-2. The test is described as above. The class given is cell-based, human. The settings on record: Mia PaCa-2, 36 hours, vs saline control. As for the experimental part:
as §1, §2, §3, §4

The substance “PYY: 36 amino acid residue peptide amide isolated originally from porcine intestine; the species of the PYY tested is not stated [Peptide YY]” displayed a Tumor mass decreased in the test on human Mia PaCa-2 cells of 27%. Also, the “Percent Reduction in Tumor Growth(%) Compared to Control” value with PANC-1 (2.5 pmol per well) stood at 9.8%; in the test with PANC-1 (25 pmol per well), 14.7%; in the test with PANC-1 (250 pmol per well) it was 25.7%; with MiaPaCa-2 (2.5 pmol per well), 0.5%; in the test on MiaPaCa-2 (25 pmol per well), 12.8%; in the test on MiaPaCa-2 (250 pmol per well), 15.4%.
